ChEMBL document CHEMBL4402613, “Targeting ALK2: An Open Science Approach to Developing Therapeutics for the Treatment of Diffuse Intrinsic Pontine Glioma” (J Med Chem, 2020)
Calls of active or inactive are those of the source. The rule behind the calls is not given here.

What was measured:
[1] = molecular target: T1, TGF-beta receptor type-1 (Homo sapiens, UniProt P36897); format: cell-based, HEK293
T1 sequence (P36897 whole entry): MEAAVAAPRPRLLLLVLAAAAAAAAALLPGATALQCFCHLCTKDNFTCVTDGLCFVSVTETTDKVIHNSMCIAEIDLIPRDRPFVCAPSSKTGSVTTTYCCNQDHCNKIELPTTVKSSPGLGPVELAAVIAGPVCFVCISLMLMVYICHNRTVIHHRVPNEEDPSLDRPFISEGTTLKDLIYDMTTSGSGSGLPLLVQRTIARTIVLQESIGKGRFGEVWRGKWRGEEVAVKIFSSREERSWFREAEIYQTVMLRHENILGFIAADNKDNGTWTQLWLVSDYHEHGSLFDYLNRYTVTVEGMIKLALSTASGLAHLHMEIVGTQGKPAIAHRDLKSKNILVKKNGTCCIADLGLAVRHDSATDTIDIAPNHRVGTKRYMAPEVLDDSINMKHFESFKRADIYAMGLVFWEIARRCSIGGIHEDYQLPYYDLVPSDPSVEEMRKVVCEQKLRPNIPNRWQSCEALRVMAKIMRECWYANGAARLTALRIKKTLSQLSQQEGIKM
Description: Inhibition of ALK5 (unknown origin) expressed in HEK293 cells transfected with CAGA-luciferase and Renilla luciferase reporter measured after 24 hrs by dual luciferase reporter assay

[2] = molecular target: T2, Activin receptor type-1 (Homo sapiens, UniProt Q04771); experiment: Inhibition of C-terminal nanoluciferase-fused ALK2 (unknown origin) expressed in HEK293 cells incubated for 2 hrs followed by NanoBRET NanoGlo Substrate addition by NanoBRET assay; format: cell-based
T2 sequence (Q04771 whole entry): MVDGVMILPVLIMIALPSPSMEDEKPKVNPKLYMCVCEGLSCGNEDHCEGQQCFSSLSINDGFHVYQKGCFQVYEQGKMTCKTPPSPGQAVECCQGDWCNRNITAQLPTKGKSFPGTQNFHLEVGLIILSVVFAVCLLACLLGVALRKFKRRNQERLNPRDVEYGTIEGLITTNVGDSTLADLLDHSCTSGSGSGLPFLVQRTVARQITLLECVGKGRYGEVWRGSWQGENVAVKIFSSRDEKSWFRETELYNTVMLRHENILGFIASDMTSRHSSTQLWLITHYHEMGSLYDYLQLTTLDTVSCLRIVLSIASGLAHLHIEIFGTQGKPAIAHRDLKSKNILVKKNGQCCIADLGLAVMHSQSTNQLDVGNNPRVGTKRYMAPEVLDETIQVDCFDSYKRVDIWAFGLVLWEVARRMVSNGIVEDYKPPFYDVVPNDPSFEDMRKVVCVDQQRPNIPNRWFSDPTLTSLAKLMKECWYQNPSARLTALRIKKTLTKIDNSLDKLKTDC

[3] = molecular target: T1, TGF-beta receptor type-1; format: single protein
Description: Inhibition of human ALK5 using casein as substrate in presence of 10 uM [gamma33P] ATP by radioactive assay

[4] = molecular target: T2, Activin receptor type-1
Description: Inhibition of human ALK2 using casein as substrate in presence of 10 uM [gamma33P] ATP by radioactive assay

[5] = molecular target: Activin receptor type-1 (Homo sapiens, UniProt Q04771, G328V); experiment: Inhibition of ALK2 G328V mutant (unknown origin)
Activin receptor type-1 (Homo sapiens, UniProt Q04771, G328V), sequence (Q04771 21-509 G328V limits assumed): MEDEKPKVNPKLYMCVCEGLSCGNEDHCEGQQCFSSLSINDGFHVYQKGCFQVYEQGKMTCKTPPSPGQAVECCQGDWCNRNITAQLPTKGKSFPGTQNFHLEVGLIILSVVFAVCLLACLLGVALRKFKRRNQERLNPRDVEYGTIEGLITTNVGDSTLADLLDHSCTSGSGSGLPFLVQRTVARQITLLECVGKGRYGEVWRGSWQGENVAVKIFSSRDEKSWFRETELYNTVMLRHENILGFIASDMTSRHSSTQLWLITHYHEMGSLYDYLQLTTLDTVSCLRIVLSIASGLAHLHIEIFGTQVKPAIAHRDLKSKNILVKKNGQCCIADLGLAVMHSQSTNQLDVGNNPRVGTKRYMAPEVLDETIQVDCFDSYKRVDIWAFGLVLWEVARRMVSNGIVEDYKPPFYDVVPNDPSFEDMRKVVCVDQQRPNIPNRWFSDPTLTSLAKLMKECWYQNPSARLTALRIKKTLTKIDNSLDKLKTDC

[6] = molecular target: Activin receptor type-1 (Homo sapiens, UniProt Q04771, R206H); experiment: Inhibition of human ALK2 R206H mutant using casein as substrate in presence of 10 uM [gamma33P] ATP by radioactive assay
Activin receptor type-1 (Homo sapiens, UniProt Q04771, R206H), sequence (Q04771 21-509 R206H limits assumed): as the sequence (Q04771 21-509 G328V limits assumed) above, with R186H, V308G counted along it

[7] = molecular target: Activin receptor type-1 (Homo sapiens, UniProt Q04771, R258G); experiment: Inhibition of ALK2 R258G mutant (unknown origin)
Activin receptor type-1 (Homo sapiens, UniProt Q04771, R258G), sequence (Q04771 21-509 R258G limits assumed): as the sequence (Q04771 21-509 G328V limits assumed) above, with R238G, V308G counted along it

[8] = molecular target: Bone morphogenetic protein receptor type-1B (Homo sapiens) (UniProt O00238); experiment: Inhibition of ALK6 (unknown origin) at 1 uM
Bone morphogenetic protein receptor type-1B (Homo sapiens), sequence (O00238 whole entry): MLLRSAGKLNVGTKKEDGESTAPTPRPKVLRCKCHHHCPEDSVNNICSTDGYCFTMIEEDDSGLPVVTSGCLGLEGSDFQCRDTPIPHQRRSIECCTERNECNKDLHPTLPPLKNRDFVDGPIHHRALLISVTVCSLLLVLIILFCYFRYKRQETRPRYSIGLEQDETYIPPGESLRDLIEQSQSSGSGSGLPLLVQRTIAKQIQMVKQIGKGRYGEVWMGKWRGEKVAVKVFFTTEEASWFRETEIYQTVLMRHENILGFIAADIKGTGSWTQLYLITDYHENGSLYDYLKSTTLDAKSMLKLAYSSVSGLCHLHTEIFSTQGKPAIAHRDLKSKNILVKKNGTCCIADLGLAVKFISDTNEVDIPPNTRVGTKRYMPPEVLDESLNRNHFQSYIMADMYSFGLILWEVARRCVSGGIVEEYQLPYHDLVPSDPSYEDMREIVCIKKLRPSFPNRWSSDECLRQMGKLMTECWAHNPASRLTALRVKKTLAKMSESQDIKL

[9] = molecular target: Misshapen-like kinase 1 (Homo sapiens) (UniProt Q8N4C8); experiment: Inhibition of MINK (unknown origin) at 1 uM
Misshapen-like kinase 1 (Homo sapiens), sequence (Q8N4C8 whole entry, looked up): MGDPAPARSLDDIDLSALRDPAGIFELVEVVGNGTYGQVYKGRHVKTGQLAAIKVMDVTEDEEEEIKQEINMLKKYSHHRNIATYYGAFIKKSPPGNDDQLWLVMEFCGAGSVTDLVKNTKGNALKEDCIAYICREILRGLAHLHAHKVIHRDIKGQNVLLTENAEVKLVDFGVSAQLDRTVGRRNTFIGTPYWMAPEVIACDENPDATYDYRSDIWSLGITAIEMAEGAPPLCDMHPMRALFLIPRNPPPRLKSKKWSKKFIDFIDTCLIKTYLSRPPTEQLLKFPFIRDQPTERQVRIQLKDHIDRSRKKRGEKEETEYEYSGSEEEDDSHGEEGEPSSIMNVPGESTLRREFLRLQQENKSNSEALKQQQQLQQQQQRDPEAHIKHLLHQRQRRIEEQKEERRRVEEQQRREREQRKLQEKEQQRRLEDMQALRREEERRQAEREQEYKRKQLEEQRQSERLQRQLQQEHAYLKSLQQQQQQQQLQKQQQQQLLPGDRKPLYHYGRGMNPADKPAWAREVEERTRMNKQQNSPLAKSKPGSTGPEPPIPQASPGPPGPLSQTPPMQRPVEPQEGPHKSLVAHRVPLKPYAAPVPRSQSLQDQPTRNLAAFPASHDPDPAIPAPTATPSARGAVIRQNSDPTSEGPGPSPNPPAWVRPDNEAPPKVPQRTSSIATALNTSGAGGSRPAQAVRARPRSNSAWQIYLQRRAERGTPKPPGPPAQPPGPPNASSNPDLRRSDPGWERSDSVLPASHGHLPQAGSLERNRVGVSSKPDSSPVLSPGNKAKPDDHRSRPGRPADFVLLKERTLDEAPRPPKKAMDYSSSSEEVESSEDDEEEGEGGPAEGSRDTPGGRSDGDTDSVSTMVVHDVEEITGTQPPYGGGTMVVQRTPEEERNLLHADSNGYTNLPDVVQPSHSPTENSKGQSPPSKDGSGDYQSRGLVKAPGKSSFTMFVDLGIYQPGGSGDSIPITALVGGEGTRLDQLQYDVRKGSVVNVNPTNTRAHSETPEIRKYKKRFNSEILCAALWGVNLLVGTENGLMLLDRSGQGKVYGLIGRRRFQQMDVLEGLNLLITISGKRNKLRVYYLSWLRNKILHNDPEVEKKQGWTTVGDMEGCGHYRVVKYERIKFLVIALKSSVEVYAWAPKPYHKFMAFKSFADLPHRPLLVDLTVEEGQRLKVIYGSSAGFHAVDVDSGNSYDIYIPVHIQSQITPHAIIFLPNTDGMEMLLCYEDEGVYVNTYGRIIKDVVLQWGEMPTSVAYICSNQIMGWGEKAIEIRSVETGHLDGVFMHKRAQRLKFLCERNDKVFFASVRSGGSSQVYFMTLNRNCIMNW

[10] = molecular target: Bone morphogenetic protein receptor type-1A (Homo sapiens) (UniProt P36894); experiment: Inhibition of ALK3 (unknown origin) at 1 uM
Bone morphogenetic protein receptor type-1A (Homo sapiens), sequence (P36894 whole entry): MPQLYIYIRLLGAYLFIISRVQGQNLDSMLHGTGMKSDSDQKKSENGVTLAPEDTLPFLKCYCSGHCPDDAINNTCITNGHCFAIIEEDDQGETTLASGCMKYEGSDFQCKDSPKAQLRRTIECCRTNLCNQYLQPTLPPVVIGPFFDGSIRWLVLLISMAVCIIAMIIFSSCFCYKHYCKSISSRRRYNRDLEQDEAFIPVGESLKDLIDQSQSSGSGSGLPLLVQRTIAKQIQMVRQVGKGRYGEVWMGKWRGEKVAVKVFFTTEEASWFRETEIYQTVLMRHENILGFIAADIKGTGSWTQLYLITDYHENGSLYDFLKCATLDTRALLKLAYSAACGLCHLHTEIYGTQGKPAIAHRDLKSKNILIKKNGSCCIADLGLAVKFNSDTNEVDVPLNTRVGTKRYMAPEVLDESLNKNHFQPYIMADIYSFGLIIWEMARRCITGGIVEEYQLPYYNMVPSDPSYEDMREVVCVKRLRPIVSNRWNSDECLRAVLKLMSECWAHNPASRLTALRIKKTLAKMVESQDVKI

[11] = molecular target: Activin receptor type-1-like (Homo sapiens) (UniProt P37023); experiment: Inhibition of ALK1 (unknown origin) at 1 uM
Activin receptor type-1-like (Homo sapiens), sequence (P37023 whole entry): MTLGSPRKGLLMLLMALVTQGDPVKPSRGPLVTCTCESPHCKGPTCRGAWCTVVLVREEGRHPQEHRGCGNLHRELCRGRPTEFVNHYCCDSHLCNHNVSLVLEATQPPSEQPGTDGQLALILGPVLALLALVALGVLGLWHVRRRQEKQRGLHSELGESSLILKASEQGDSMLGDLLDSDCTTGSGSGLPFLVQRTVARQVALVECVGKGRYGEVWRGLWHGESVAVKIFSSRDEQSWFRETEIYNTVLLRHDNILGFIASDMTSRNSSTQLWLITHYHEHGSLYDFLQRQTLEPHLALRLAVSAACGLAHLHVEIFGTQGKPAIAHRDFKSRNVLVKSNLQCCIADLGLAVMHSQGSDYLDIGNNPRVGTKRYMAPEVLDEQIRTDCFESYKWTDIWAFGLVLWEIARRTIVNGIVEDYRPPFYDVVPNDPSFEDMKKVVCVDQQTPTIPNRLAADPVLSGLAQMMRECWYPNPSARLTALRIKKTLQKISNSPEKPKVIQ

[12] = molecular target: Mitogen-activated protein kinase kinase kinase kinase 4 (Homo sapiens) (UniProt O95819); experiment: Inhibition of MAP4K4 (unknown origin) at 1 uM
Mitogen-activated protein kinase kinase kinase kinase 4 (Homo sapiens), sequence (O95819 2-1239 limits assumed): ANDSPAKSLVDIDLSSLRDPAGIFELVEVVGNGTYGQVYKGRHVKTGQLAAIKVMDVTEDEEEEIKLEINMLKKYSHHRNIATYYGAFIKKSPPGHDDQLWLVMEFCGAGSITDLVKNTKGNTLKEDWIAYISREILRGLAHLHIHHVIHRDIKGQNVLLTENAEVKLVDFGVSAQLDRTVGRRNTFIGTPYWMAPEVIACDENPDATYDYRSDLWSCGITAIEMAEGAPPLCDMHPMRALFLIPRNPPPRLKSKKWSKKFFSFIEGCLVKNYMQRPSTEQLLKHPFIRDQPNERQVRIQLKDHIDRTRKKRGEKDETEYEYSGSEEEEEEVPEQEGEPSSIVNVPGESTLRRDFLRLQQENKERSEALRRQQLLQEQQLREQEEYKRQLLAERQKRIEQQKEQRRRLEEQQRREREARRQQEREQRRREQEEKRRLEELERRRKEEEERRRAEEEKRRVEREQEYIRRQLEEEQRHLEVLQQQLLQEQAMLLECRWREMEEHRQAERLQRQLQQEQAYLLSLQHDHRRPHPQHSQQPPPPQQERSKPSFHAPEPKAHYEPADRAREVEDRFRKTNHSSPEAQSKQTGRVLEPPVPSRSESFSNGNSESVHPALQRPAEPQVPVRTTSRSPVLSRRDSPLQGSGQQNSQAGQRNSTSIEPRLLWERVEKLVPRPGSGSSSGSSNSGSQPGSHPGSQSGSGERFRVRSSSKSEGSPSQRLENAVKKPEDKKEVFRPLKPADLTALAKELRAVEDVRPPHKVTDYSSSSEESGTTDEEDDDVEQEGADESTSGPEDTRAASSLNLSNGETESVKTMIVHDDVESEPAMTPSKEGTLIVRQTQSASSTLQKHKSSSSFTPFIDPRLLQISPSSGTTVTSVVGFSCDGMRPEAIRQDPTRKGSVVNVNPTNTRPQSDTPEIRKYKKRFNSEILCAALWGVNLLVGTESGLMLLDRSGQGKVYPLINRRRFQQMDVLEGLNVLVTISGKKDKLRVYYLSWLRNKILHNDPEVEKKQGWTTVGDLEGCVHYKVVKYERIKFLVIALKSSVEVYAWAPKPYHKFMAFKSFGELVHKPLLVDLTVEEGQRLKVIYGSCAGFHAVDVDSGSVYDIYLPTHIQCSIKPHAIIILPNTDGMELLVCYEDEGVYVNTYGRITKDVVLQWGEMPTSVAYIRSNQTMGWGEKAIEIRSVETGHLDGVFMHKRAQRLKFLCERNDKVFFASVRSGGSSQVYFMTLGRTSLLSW

[13] = molecular target: T3, Serine/threonine-protein kinase A-Raf (Homo sapiens) (UniProt P10398); experiment: Inhibition of ARAF (unknown origin) at 1 uM
T3 sequence (whole entry): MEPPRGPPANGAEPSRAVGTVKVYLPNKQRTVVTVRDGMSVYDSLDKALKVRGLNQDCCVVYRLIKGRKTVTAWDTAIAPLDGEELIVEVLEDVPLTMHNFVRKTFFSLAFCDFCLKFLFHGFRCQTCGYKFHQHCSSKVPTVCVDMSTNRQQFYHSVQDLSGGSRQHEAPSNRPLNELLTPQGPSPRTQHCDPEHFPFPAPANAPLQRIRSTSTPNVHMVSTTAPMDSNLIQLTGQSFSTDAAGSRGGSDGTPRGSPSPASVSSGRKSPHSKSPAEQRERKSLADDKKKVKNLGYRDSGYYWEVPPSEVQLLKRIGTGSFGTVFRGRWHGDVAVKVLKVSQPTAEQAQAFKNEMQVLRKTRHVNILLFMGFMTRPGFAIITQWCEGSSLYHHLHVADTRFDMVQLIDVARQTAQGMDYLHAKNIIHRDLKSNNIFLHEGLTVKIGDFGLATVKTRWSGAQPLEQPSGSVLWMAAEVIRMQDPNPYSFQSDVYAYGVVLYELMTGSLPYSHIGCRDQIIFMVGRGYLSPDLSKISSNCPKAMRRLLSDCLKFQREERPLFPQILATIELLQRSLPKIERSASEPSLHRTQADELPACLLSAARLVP

[14] = molecular target: T4, Non-receptor tyrosine-protein kinase TNK1 (Homo sapiens) (UniProt Q13470); experiment: Inhibition of TNK1 (unknown origin) at 1 uM
T4 sequence (whole entry): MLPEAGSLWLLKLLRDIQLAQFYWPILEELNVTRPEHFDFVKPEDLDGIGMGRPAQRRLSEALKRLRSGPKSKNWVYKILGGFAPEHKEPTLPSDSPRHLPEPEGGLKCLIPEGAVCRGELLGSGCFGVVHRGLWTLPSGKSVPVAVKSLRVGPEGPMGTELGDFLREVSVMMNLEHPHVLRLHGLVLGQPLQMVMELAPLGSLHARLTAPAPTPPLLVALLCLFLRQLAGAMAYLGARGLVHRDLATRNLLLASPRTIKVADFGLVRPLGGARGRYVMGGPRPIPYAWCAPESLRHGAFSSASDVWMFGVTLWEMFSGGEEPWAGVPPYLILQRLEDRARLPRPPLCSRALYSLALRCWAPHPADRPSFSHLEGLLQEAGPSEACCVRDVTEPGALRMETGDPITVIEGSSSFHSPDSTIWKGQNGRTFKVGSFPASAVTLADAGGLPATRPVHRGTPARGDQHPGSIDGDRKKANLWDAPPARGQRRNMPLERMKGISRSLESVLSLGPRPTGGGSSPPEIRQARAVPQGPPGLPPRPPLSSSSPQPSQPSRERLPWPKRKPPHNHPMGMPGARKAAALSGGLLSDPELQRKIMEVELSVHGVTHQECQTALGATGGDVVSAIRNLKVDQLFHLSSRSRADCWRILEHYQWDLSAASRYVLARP

[15] = in vitro; conditions: human, Caco-2
Description: Apparent permeability across basolateral to apical membrane in human Caco2 cells at 5 uM incubated for 120 mins in orbital shaker by LC-QTOF/MS analysis

[16] = in vitro; conditions: human, Caco-2; remark: listed apart in the source
Description: Apparent permeability across apical to basolateral membrane in human Caco2 cells at 5 uM incubated for 120 mins in orbital shaker by LC-QTOF/MS analysis

[17] = mouse, in vivo, po, 10 mg/kg, 24 h
[18] = mouse, in vivo, po, 10 mg/kg, 24 h; remark: listed apart in the source
Description: Half life in CB17 SCID mouse at 10 mg/kg, po measured up to 24 hrs by LC-MS/MS analysis

[19] = human, microsomes, 1 h, 1 µM
Description: Microsomal stability in human liver microsomes assessed as parent compound remaining at 1 uM and 37 degree C measured after 60 mins in presence of NADP+ by LC-QTOF/MS analysis

[20] = mouse, in vivo, po, 10 mg/kg, 24 h; remark: listed apart in the source
[21] = mouse, microsomes, 1 h, 1 µM
Description: Microsomal stability in CD-1 mouse liver microsomes assessed as parent compound remaining at 1 uM and 37 degree C measured after 60 mins in presence of NADP+ by LC-QTOF/MS analysis

Row | SMILES | IC50 [1] [nM] | IC50 [2] [nM] | IC50 [3] [nM] | IC50 [4] [nM] | other results
1 | COc1c(-c2cncc(-c3ccc(N4CCNCC4)cc3)c2C)csc1C(N)=O | > 5000 | 2810 | > 5000 | 712 | –
2 | Cc1c(-c2ccc(N3CCNCC3)cc2)cncc1-c1ccc(C(N)=O)c(F)c1 | > 5000 | 1010 | > 5000 | 263 | –
3 | COc1cc(-c2cncc(-c3ccc(N4CCNCC4)cc3)c2C)ccc1C(=O)N(C)C | > 5000 | > 5000 | > 5000 | > 1000 | –
4 | CNC(=O)c1ccc(-c2cncc(-c3ccc(N4CCNCC4)cc3)c2C)cc1OC | > 5000 | > 5000 | > 5000 | > 1000 | –
5 | COc1cc(-c2cncc(-c3ccc(N4CCN(C)CC4)cc3)c2C)cc(OC)c1C(N)=O | 249 | 19 | 75 | < 3 | IC50 [5]: < 2 nM; IC50 [6]: 4 nM; IC50 [7]: < 2 nM
6 | COc1cc(-c2cncc(-c3ccc(N4CCNCC4)cc3)c2C)sc1C(N)=O | > 5000 | 3370 | > 5000 | 751 | –
7 | COc1cc(-c2cncc(-c3ccc(N4CCN(C(C)C)CC4)cc3)c2C)cc(OC)c1C(N)=O | 276 | 18 | 66 | 5 | –
8 | COc1cc(-c2cncc(-c3ccc(N4CCNCC4)cc3)c2C)ccc1C(N)=O | – | 55 | – | – | IC50 [5]: 5 nM; IC50 [6]: 9 nM; IC50 [7]: 9 nM
9 | COc1ccc(-c2cncc(-c3ccc(N4CCNCC4)cc3)c2C)cc1C(N)=O | > 5000 | 694 | > 5000 | > 1000 | –
10 | COc1cc(-c2cncc(-c3ccc(N4CCN(C(C)C)CC4)cc3)c2C)cc(F)c1C(N)=O | – | – | – | – | inhibition [8]: Active; inhibition [9]: Active; inhibition [10]: Active; inhibition [11]: Active; inhibition [12]: Active; inhibition [13]: Active; inhibition [14]: Active
11 | COCc1cc(-c2cncc(-c3ccc(N4CCNCC4)cc3)c2C)ccc1C(N)=O | > 5000 | 3840 | > 5000 | 687 | –
12 | COc1cc(-c2cncc(-c3ccc(N4CCNCC4)cc3)c2C)cc(Cl)c1C(N)=O | > 5000 | 93 | 2080 | – | IC50 [5]: < 2 nM; IC50 [6]: 5 nM; IC50 [7]: 4 nM
13 | COc1cc(-c2cncc(-c3ccc(N4CCNCC4)cc3)c2C)cc(F)c1C(N)=O | – | 81 | – | – | Papp B→A at 2 h, 5 µM [15]: 10.7 ×10⁻⁶ cm/s; Papp A→B at 2 h, 5 µM [16]: 0.3 ×10⁻⁶ cm/s; IC50 [5]: 4 nM; Cmax [17]: 97 ng/mL; IC50 [6]: 8 nM; t1/2 [18]: 1.31 h; Stability [19]: > 85%; IC50 [7]: 7 nM; AUC [20]: 296 ng·h/mL; Stability [21]: > 85%
14 | COc1c(C(N)=O)csc1-c1cncc(-c2ccc(N3CCNCC3)cc2)c1C | > 5000 | > 5000 | > 5000 | > 1000 | –
15 | Cc1c(-c2ccc(N3CCNCC3)cc2)cncc1-c1ccc2c(c1)CNC2=O | 4810 | 2340 | > 5000 | – | IC50 [5]: 171 nM; IC50 [6]: 226 nM; IC50 [7]: 363 nM
16 | Cc1c(-c2ccc(C(N)=O)cc2)cncc1-c1ccc(N2CCNCC2)cc1 | > 5000 | 2770 | > 5000 | 477 | –
17 | COc1cc(-c2cncc(-c3ccc(N4CCNCC4)cc3)c2C)cc(OC)c1C(N)=O | – | 178 | – | – | –
18 | COc1cc(-c2cncc(-c3ccc(N4C[C@@H](C)N(C)[C@@H](C)C4)cc3)c2C)cc(OC)c1C(N)=O | 283 | – | 52 | 3 | –
19 | COc1cc(C(N)=O)cc(-c2cncc(-c3ccc(N4CCNCC4)cc3)c2C)c1 | > 5000 | 588 | > 5000 | 102 | –
